Measurements taken from patent US6054437A, “Method for inducing death of neoplastic cells using piperazine derivatives” (Hitachi Chemical Research Center, Inc., priority 1997, dated 2000).
Counter-ions that a name gives are not always drawn.

Columns and labels:
[1] = test system: prostate cancer cell lines; experiment: Cancer cell death assay (LDH release), prostate lines; type: cell-based, human; settings: compound alone, 24 hours
Method: (§1) 1. Cancer Cell Death Assay
(§2) Cell death was measured quantitatively by the release of a marker intracellular enzyme, lactate dehydrogenase (LDH), from damaged or killed cells. LDH released into the extracellular fluid, was measured 24 hours after drug exposure to cancer cells and the enzyme activity was determined by the method of Decker et al. (J. Immunolog Methods 15:61-99, 1988).
All cell lines used in the present study were obtained from the American Type Tissue Culture Laboratory and cultured according to their specifications. All were human cancer lines unless otherwise noted. The following cell lines and their tissue of origin used in our studies were:
The first assays performed measured the anti-neoplastic activity of NCO-700, alone, in cell death assays of a wide variety of human cancer cells. The results of these experiments are shown in FIGS. 1-6, where a dose-response curve of NCO-700 versus % LDH release is plotted, with higher values of LDH released indicating greater anti-neoplastic activity (apoptosis).
In FIG. 8, a dose-response curve is shown of the effect of TOP-008 on the killing of breast, prostate and colon cell lines.

[2] = test system: HS-578T (breast); experiment: Cancer cell death assay (LDH release), HS-578T; type: cell-based, human; settings: HS-578T, 25 μM, 1,000 and 1,500 cells/well (FIGS. 34, 35)
Method: as §1, §2
A series of analogs related to NCO-700 were assayed in the cancer cell death assay. […] It should be stressed that these analogs were tested alone, without any added chemotherapeutic agent.
Based on Experiment 1 above, the anti-cancer activity of NCO-700, TOP-008, and analogs, TOP-201, 202, 203, 204, 205, 206, 207, and 007, was tested in cancer cell death assays of human cancer cell line HS-578T. In FIGS. 34 (1,000 cells/well) and 35 (1,500 cells/well), a bar graph indicates the activity of a particular analog as measured by the % LDH released (DMSO, dimethyl sulfoxide=control), with higher values of LDH released indicating greater anti-neoplastic activity. All analogs were tested at a concentration of 25 μM.

[3] = test system: human cancer cells; experiment: Cancer cell death assays against a number of human cancer cells; type: cell-based; settings: compounds alone; analogs at 25 μM (FIGS. 20-25)
Method: as §2
As described in Experiment 1, three different assays were performed to measure anti-neoplastic activity of compounds.
The first assays performed measured the anti-neoplastic activity of NCO-700 analogs in cell death assays against a number of human cancer cells. The results of these experiments are shown in FIGS. 20-25, where a bar graph indicates the activity of a particular analog as measured by the % LDH released, with higher values of LDH released indicating greater anti-neoplastic activity (apoptosis). All analogs were tested at a concentration of 25 μM.

[4] = test system: HS-578T (breast); experiment: Cancer cell survival assay, HS-578T; type: cell-based, human; settings: seven days, alone
Method: (§3) Cell survival was assayed in cultured tumor cells. From 500-1000 cells per well were plated in 24-welled culture dishes and exposed to drug for seven days. After drug exposure, a computerized cell imaging technique was utilized to ascertain the number of viable cells remaining in each culture. From the data, survival curves were plotted and a ED50 (drug concentration that permits 50% cell survival) were calculated.
(§4) The cancer cell survival assay is an important additional in vitro assay to assess the anti-neoplastic activity of compounds as the cells are given a prolonged exposure (seven days) to the drug. FIGS. 9-16 show the effect of increasing the dose of NCO-700 on the survival of a number of cancer cell lines. […] In the figures, the vertical axis is the object area, which is the number of surviving cancer cells calculated by a computer.

[5] = test system: LS-174T (colon); experiment: Cancer cell survival assay, LS-174T; type: cell-based, human; settings: seven days, alone
Method: as §3, §4

[6] = test system: LN (prostate); experiment: Cancer cell survival assay, LN; type: cell-based, human; settings: seven days, alone
Method: as §3, §4

[7] = test system: KB-V-1 (resistant cells); experiment: Drug accumulation assay ([3H]-vinblastine), resistant cells; type: cell-based, human; settings: KB-V-1, 20 μM NCO-700 + vinblastine
Method: 1. Drug Accumulation Assays
where the effect of NCO-700 on the uptake of radioactive (^3 H)-vinblastine, an anticancer drug, is measured in cultured cancer cells, that are both drug-resistant and drug-sensitive (Reference 3).
In the first two in vitro assays, the drug accumulation assay and the cell survival assay, a human pharyngeal carcinoma cell line (KB-V-1) which is highly resistant to anticancer drugs was used. This cell line was developed by Drs. Ira Pastan and Michael Gottesman of the National Cancer Institute, by step-wise selection in colchicine of drug-resistant cells. The control cancer cell line (KB-3), from which the resistant cell lines were derived, is sensitive to anticancer drugs.
Measurement of [^3 H]-vinblastine accumulation was performed by the methods developed in the laboratory of Drs. […] In this method, KB-V-1 and KB-3 cells were plated in 10% fetal bovine serum at a density of 3×10^5 cells per well in 24-well Costar plates. The next day, the growth medium was replaced with Dulbecco's modified Eagle's medium with or without (control cells) 20 μM NCO-700. After ten minutes, the medium was removed and replaced with assay medium (0.5 ml) containing 0.1 μCi, (13 pmol) [^3 H]-vinblastine in the presence or absence of 20 μM NCO-700. After an additional 30 min, the medium was removed, the plates were washed three times in ice-cold phosphate-buffered saline, the cells were detached with trypsin, and radioactivity determined by scintillation counting.

[8] = test system: breast cancer tumor cells from patients; experiment: Human tumor biopsy assay (tumor cloning system), breast tumors; type: cell-based; settings: 20 μM NCO-700, two breast tumors
Method: 4. Human Tumor Biopsy Assays
where the effect of NCO-700 to enhance killing, by either vinblastine or adriamycin, of cancer cells cultured directly from patient's tumors (Von Hoff et al., Cancer Res. 43:1926-1931, 1983).
For the tumor biopsy assay, primary cell cultures were propagated directly from tumor specimens removed from patients. The cells were grown in suspension culture, treated with adriamycin or vinblastine plus NCO-700, and plated onto soft agar and incubated for two weeks before cell survival was determined.
In a final series of experiments, the effect of NCO-700 on survival of cells cultured directly from biopsied patient tumors was performed. This technique, referred to as a human tumor cloning system, was developed by Von Hoff and associates (Von Hoff et al., Cancer Res. 43:1926-1931, 1983) and was used clinically to predict the course of chemotherapy for these patients. In this method, tumor biopsies were separated into cell suspensions and treated for 1 hour with either 0.4 mg/ml vinblastine (VLB) or 0.5 mg/ml adriamycin (ADR) plus or minus 20 μM NCO-700. The cell suspensions were washed after one hour of incubation and plated with soft agar. After 14 days of incubation at 37°, the percent of colonies surviving was scored. […] In particular, the survival of tumor cells decreased to approximately 1/2 to 1/3 after exposure to NCO-700 and adriamycin. […]

CCOC(=O)[C@@H]1O[C@H]1C(=O)N[C@@H](CC(C)C)C(=O)N1CCN(Cc2ccc(OC)c(OC)c2OC)CC1 [NCO-700, Bis[ethyl (2R,3R)-3-[(S)-3-methyl-1-[4-(2,3,4-trimethoxyphenylmethyl)piperazin-1-ylcarbonyl]butylcarbamoyl]oxirane-2-carboxylate] Sulfate]
anti-neoplastic activity (LDH release) [1]: the cell lines that were testosterone receptor negative (and more malignant) responded very well | anti-neoplastic activity (% LDH released) [2]: fairly good anti-neoplastic activity | anti-neoplastic activity, selectivity among human cancer cells [3]: highly effective as an anti-neoplastic agent versus selective tumors | anti-neoplastic activity (cell survival) [4]: significant anti-neoplastic activity | anti-neoplastic activity (cell survival) [5]: significant anti-neoplastic activity | anti-neoplastic activity (cell survival) [6]: significant anti-neoplastic activity | vinblastine accumulation [7]: 1.56 ± 0.03 pmole vinblastine/mg protein | sensitization of tumor cells to adriamycin and vinblastine [8]: significantly sensitized these tumor cells to the actions of adriamycin (ADR) and vinblastine (VLB)
